Test results as given in US8524717B2, “Oxidase inhibitors and their use” (Oryzon Genomics, S.A., priority 2008, dated 2013).

Legend:
[1] = target: MAO-B (Homo sapiens (Human), UniProt P27338); test: Monoamine oxidase assay (kynuramine to 4-hydroxyquinoline fluorescence), MAO-B; type: biochemical; conditions: Table 1
Method: (§1) Human recombinant monoamine oxidase proteins MAO-A and MAO-B were purchased from Sigma Aldrich. MOAs catalyze the oxidative deamination of 1°, 2° and 3° amines. In order to monitor MAO enzymatic activities and/or their inhibition rate by inhibitor(s) of interest, a fluorescent-based (inhibitor)-screening assay was set up. 3-(2-Aminophenyl)-3-oxopropamamine (kynuramine dihydrobromide, Sigma Aldrich), a non fluorescent compound was chosen as a substrate. Kynuramine is a non-specific substrate for both MAOs activities. While undergoing oxidative deamination by MAO activities, kynuramine is converted into 4-hydroxyquinoline (4-HQ), a resulting fluorescent product.
(§2) The monoamine oxidase activity was estimated by measuring the conversion of kynuramine into 4-hydroxyquinoline. Assays were conducted in 96-well black plates with clear bottom (Corning) in a final volume of 100 μL. The assay buffer was 100 mM HEPES, pH 7.5. Each experiment was performed in triplicate within the same experiment.
(§3) The oxidative deamination of the substrate was stopped by adding 50 μL (v/v) of NaOH 2N.
(§4) The Ki of each inhibitor was measure at Vmax/2.

[2] = target: Human recombinant LSD1 protein (Homo sapiens (Human), UniProt O60341); test: LSD1 demethylase inhibition assay (Amplex Red peroxide/peroxidase-coupled, di-methylated H3-K4 peptide); conditions: for LSD1 percent at fixed concentration: at 20 μM; for ability to inhibit LSD1: preliminary assays, result in words
Method: The demethylase activity was estimated, under aerobic conditions, by measuring the release of H2O2 produced during the catalytic process, using the Amplex® Red peroxide/peroxidase-coupled assay kit (Invitrogen).
Tranylcypromine (Biomol International) was used as a control for inhibition. Within the experiment, each concentration of inhibitor was tested in triplicate. […] The enzymatic reactions were set up in a 50 mM sodium phosphate, pH 7.4 buffer. […] A 1 μM H2O2 solution was used as a control of the kit efficiency. The conversion of the Amplex® Red reagent to resorufin due to the presence of H2O2 in the assay, was monitored by fluorescence (excitation at 540 nm, emission at 590 nm) using a microplate reader (Infinite 200, Tecan). Arbitrary units were used to measure level of H2O2 produced in the absence and/or in the presence of inhibitor.
The Ki of each inhibitor was estimated at half of the maximum activity.

[3] = target: MAO-A (Homo sapiens (Human), UniProt P21397); test: Monoamine oxidase assay (kynuramine to 4-hydroxyquinoline fluorescence), MAO-A; type: biochemical; conditions: for Ki: Table 1
Sequence of MAO-A (P21397 whole entry): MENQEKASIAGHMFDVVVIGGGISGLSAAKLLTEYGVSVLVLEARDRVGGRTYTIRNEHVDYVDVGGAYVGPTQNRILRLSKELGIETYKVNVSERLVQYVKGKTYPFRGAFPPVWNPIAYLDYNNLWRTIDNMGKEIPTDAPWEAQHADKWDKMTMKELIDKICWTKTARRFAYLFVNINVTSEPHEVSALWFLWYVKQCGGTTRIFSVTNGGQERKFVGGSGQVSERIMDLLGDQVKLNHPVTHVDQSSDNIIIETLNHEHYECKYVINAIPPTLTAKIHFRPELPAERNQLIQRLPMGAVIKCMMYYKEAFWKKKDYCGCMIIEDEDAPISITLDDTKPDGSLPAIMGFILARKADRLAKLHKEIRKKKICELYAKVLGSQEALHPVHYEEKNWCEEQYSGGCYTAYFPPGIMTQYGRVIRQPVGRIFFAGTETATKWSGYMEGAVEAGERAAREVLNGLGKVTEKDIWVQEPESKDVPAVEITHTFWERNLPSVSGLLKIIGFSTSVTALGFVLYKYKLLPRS
Method: as §1, §2, §3, §4

Sequence of MAO-B (P27338 whole entry): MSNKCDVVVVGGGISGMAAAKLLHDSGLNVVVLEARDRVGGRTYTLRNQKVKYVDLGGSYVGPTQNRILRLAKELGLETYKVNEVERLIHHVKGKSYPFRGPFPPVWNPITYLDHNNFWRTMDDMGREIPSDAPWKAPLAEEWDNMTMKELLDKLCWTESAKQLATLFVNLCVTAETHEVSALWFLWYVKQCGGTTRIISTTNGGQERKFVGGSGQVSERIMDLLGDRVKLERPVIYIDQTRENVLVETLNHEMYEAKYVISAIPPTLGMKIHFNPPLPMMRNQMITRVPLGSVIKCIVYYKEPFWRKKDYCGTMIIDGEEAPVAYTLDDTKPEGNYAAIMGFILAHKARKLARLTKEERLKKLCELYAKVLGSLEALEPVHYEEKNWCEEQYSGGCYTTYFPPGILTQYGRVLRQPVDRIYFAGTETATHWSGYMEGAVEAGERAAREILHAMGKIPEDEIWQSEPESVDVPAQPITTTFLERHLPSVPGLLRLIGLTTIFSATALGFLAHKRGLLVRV

Structure (SMILES) | Ki [1] | LSD1 percent at fixed concentration [2] | Ki [3] | IC50 value for MAO-A [3] | Ki [2] | ability to inhibit LSD1 [2]
CN1CCN(C(=O)CN[C@H]2C[C@@H]2c2ccc(OCc3ccccc3)cc2)CC1 (relative stereo) [Example 26, 2-((trans)-2-(4-(benzyloxy)phenyl)cyclopropylamino)-1-(4-methylpiperazin-1-yl)ethanone] | – | – | 11 µM | low micromolar range | – | –
CN(C)CCNC(=O)CN[C@H]1C[C@@H]1c1ccccc1 (relative stereo) [Example 13, N-(2-(dimethylamino)ethyl)-2-((trans)-2-phenylcyclopropylamino)acetamide] | > 40 µM | – | > 40 µM | – | – | –
O=C(CN[C@H]1C[C@@H]1c1ccccc1)Nc1ccc(F)cc1 (relative stereo) [Example 8, N-(4-fluorophenyl)-2-{[(trans)-2-phenylcyclopropyl]amino}acetamide] | > 50 µM | – | > 50 µM | – | > 50 µM | did not inhibit LSD1

Next, values leading:

Ki [1] | LSD1 percent at fixed concentration [2] | Ki [3] | IC50 value for MAO-A [3] | Ki [2] | ability to inhibit LSD1 [2] | Structure (SMILES)
> 100 µM | 40% at 20 | > 100 µM | – | – | – | CN(CC(N)=O)[C@H]1C[C@@H]1c1ccccc1 (relative stereo) [Example 20, 2-{methyl[(trans)-2-phenylcyclopropyl]amino}acetamide]
> 100 µM | 34% at 20 | 74 µM | – | – | – | CN(CC(=O)NC1CC1)[C@H]1C[C@@H]1c1ccccc1 (relative stereo) [Example 19, N-cyclopropyl-2-{methyl[(trans)-2-phenylcyclopropyl]amino}acetamide]
– | – | – | – | > 100 µM | did not inhibit LSD1 | CC(C)(C)NC(=O)CN(Cc1ccccc1)[C@H]1C[C@@H]1c1ccccc1 (relative stereo) [Example 21, 2-(benzyl((trans)-2-phenylcyclopropyl)amino)-N-tert-butylacetamide]
